Results reported in patent US8779144B2, “Bicycloheteroaryl compounds as P2X7 modulators and uses thereof” (Evotec (US) Inc., priority 2006, dated 2014).

Test system: IL-1β release from THP-1 cells
Test: IL-1β release assay in differentiated THP-1 cells stimulated with BzATP (ELISA)
Format: cell-based
Conditions: Homo sapiens; for inhibition at 0.3 µM: 0.3 uM compound, BzATP 250 uM, read-out: IL-1β % Inhib. @ 0.3 uM.; for IC50: released IL-1β as in Example 9, four parameter logistic fit, read-out: IL-Iβ IC50
Procedure: THP-1 cells (ATCC Cat #285-IF-100) are plated in 96 well plates at a concentration of 200,000 cells per well and allowed to differentiate in RPMI-1640 media (ATCC Cat #30-2001) containing 10% FBS, 100 IU/mL penicillin, 100 ug/mL streptomycin, 100 ng/mL LPS and 100 ng/mL IFN-γ for 16 hours. Following differentiation, the cells are treated for an additional 2 hours in RPMI-1640 media containing 100 IU/mL penicillin, 100 ug/mL streptomycin and fresh LPS at 100 ng/mL. The cells are then pretreated for 30 minutes with the compound of interest at the appropriate concentration in RPMI media containing 100 IU/mL penicillin, 100 ug/mL streptomycin. Following the pretreatment 2′,3′-O-(4-benzoylbenzoyl)-adenosine 5′-triphosphate (Sigma Aldrich Cat # B6396) is added to a final concentration of 250 uM and the cells are incubated for an additional 45 minutes. 30 uL of cell supernatant is then collected and IL-113 levels determined via ELISA (R&D systems Cat. # HSLB50) according to manufacturer's recommendations using the Tecan Safire plate reader. Background adjusted IL-1β levels of drug treated and non-treated cells are used to calculate the percent inhibition. […]
The compounds set forth in Table 1 were tested for activity in a cellular model as described herein. Specifically, cells were pretreated with differing amounts of the compound under test and released IL-1β determined as in Example 9, above. Measurements were made and IC50 values, presented in Table 2, below, were determined by fitting the data to a four parameter logistic equation using GraphPad Prism software (GraphPad Software, Inc). The equation may be expressed by the following formula: Y=Bottom+(Top−Bottom)/(1+10^((LogEC50−X)*HillSlope)) Where X is the logarithm of concentration, Y is the response and Y starts at Bottom and goes to Top with a sigmoid shape.

| SMILES | inhibition at 0.3 µM [%] | IC50 [µM] |
| --- | --- | --- |
| C[C@H](C(N)=O)n1ccc2c(C(=O)NCc3ccc(Cl)c(C(F)(F)F)c3)cccc2c1=O [Compound 2058, 2-((R)-1-Carbamoyl-ethyl)-1-oxo-1,2-dihydro-isoquinoline-5-carboxylic acid 4-chloro-3-trifluoromethyl-benzylamide] | > 76 | 0.021 |
| O=C(NCc1ccc(Cl)c(C(F)(F)F)c1)c1cccc2c(=O)n(C(CO)CO)ccc12 [Compound 2053, 2-(2-Hydroxy-1-hydroxymethyl-ethyl)-1-oxo-1,2-dihydro-isoquinoline-5-carboxylic acid 4-chloro-3-trifluoromethyl-benzylamide] | > 76 | 0.0404 |
| C[C@H](NC(=O)c1cccc2c(=O)n([C@@H](C)C(N)=O)ccc12)c1ccc(Cl)cc1 [Compound 2066] | 0 to 25 | > 1 |
| CC(C(N)=O)n1ccc2c(C(=O)NCC3CCCCCC3)cccc2c1=O (stereo not drawn) [Compound 2050] | 0 to 25 | 0.653 |
| O=C(NCc1ccc(F)c(C(F)(F)F)c1)c1cccc2c(=O)n(C3CC3)ccc12 [Compound 2075] | > 76 | 0.158 |
| O=C(NCC1CCCCC1)c1ncnc2c1CCN(Cc1ccncc1)C2 [Compound 2007] | 0 to 25 |  |
| O=C(NCC1CCCCC1)c1ncnc2c1CCNC2 [Compound 2002, 5,6,7,8-Tetrahydro-pyrido[3,4-d]pyrimidine-4-carboxylic acid cyclohexylmethyl-amide] | 0 to 25 |  |
| O=C(NCC1CCCCC1)c1cccc2c(=O)n(CCO)ccc12 [Compound 2052] | 0 to 25 | 0.694 |
| Cc1ccc(C2(CNC(=O)c3ncnc4c3CCN(Cc3ccccc3)C4)CCCCC2)cc1 [Compound 2018] | 0 to 25 |  |
| O=C(NCC1CCCCCC1)c1cccc2c(=O)n(CC(O)CO)ccc12 (stereo not drawn) [Compound 2039, 2-(2,3-Dihydroxy-propyl)-1-oxo-1,2-dihydro-isoquinoline-5-carboxylic acid cycloheptylmethyl-amide] | 51 to 75 | 0.257 |
| COCC(O)Cn1ccc2c(C(=O)NCC3(O)CCCC(C)(C)C3)cccc2c1=O (stereo not drawn) [Compound 2046] | 0 to 25 | > 1 |
| CC1(C)CCCC(O)(CNC(=O)c2cccc3c(=O)n(CC(O)CO)ccc23)C1 (stereo not drawn) [Compound 2042] | 51 to 75 | 0.145 |
| C[C@H](CO)n1ccc2c(C(=O)NCc3ccc(C(F)(F)F)cc3)cccc2c1=O [Compound 2068] | 51 to 75 | 0.212 |
| Cc1ccc(CN2CCc3c(ncnc3C(=O)NCC3CCCCC3)C2)cc1 [Compound 2013] | 0 to 25 |  |
| O=C(NCC1CCCCCC1)c1cccc2c(=O)n(C3CC3)ccc12 [Compound 2070, 2-Cyclopropyl-1-oxo-1,2-dihydro-isoquinoline-5-carboxylic acid cycloheptylmethyl-amide] | > 76 | 0.0165 |
| O=C(NCC1CCCCC1)c1ncnc2c1CCN(Cc1ccccc1)C2 [Compound 2004] | 0 to 25 |  |
| O=C(NCC12CC3CC(CC(C3)C1)C2)c1ncnc2c1CCN(Cc1ccccc1Cl)C2 [Compound 2025] | 26 to 50 |  |
| O=C(NCc1ccc(Cl)c(Cl)c1)c1cccc2c(=O)n(C3CC3)ccc12 [Compound 2072, 2-Cyclopropyl-1-oxo-1,2-dihydro-isoquinoline-5-carboxylic acid 3,4-dichloro-benzylamide] | > 76 | 0.0592 |
| C[C@@H](C(N)=O)n1ccc2c(C(=O)NCc3ccc(Cl)c(Cl)c3)cccc2c1=O [Compound 2061] | 51 to 75 | 0.214 |
| C[C@H](CO)n1ccc2c(C(=O)NCC3CCCCCC3)cccc2c1=O [Compound 2069, 2-((R)-2-Hydroxy-1-methyl-ethyl)-1-oxo-1,2-dihydro-isoquinoline-5-carboxylic acid cycloheptylmethyl-amide] | > 76 | 0.00691 |
| O=C(NCc1ccc(F)c(Cl)c1)c1cccc2c(=O)n(C3CC3)ccc12 [Compound 2073] | > 76 | 0.151 |
| O=C(NCC1(O)CCCCCC1)c1cccc2c(=O)n(Cc3ccc(F)cc3)ccc12 [Compound 2031, 2-(4-Fluoro-benzyl)-1-oxo-1,2-dihydro-isoquinoline-5-carboxylic acid (1-hydroxy-cycloheptylmethyl)-amide] | > 76 | 0.042 |
| O=C(NCC1CCCCC1)c1ncnc2c1CCN(Cc1ccccc1Cl)C2 [Compound 2008] | 0 to 25 |  |
| O=C(NCC1CCCCC1)c1ncnc2c1CCN(Cc1cccnc1)C2 [Compound 2006] | 0 to 25 |  |
| O=C(NCC1(O)CCCCCC1)c1ncnc2c1CCN(Cc1ccccc1)C2 [Compound 2016] | 0 to 25 |  |
| CC1(C)OCC(Cn2ccc3c(C(=O)NCC4CCCCCC4)cccc3c2=O)O1 (stereo not drawn) [Compound 2038] | 0 to 25 | 0.606 |

| SMILES | inhibition at 0.3 µM [%] | IC50 [µM] |
| --- | --- | --- |
| Cn1ccc2c(C(=O)NCC3(O)CCCC(C)(C)C3)cccc2c1=O (stereo not drawn) [Compound 2045] | 0 to 25 | > 1 |
| CC1(C)CCCC(O)(CNC(=O)c2ncnc3c2CCN(Cc2ccccc2)C3)C1 (stereo not drawn) [Compound 2017] | 0 to 25 |  |
| C[C@H](C(N)=O)n1ccc2c(C(=O)NCc3ccc(Cl)c(Cl)c3)cccc2c1=O [Compound 2060] | > 76 | 0.0382 |
| CC1(C)CC(C)(C)CC(O)(CNC(=O)c2cccc3c(=O)n(C(CO)CO)ccc23)C1 [Compound 2054] | 51 to 75 | 0.233 |
| O=C(NCC1CCCCC1)c1ncnc2c1CCN(Cc1ccccn1)C2 [Compound 2010] | 0 to 25 |  |
| C[C@@H](C(N)=O)n1ccc2c(C(=O)NCc3ccc(Cl)c(C(F)(F)F)c3)cccc2c1=O [Compound 2059, 2-((S)-1-Carbamoyl-ethyl)-1-oxo-1,2-dihydro-isoquinoline-5-carboxylic acid 4-chloro-3-trifluoromethyl-benzylamide] | > 76 | 0.0774 |
| O=C(NCCc1ccccc1Cl)c1ncnc2c1CCN(Cc1ccccc1)C2 [Compound 2001] | 0 to 25 | > 1 |
| O=C(NCCc1ccccc1)c1ncnc2c1CCNC2 [Compound 2003] | 0 to 25 |  |
| O=C(NCC1CCCCCC1)c1cccc2c1CCN(C(CO)CO)C2=O [Compound 2037] | 51 to 75 | 0.138 |
| O=C(NCC1CCCCCC1)c1cccc2c(=O)n(Cc3ccc4c(c3)OCCO4)ccc12 [Compound 2036] | > 76 | 0.0116 |
| Cc1ccc2c(c1C(=O)NCc1ccc(C(F)(F)F)c(F)c1)CCN(C(=O)C1CCC1)C2 [Compound 2081] | > 76 | 0.149 |
| Cc1ccc2c(c1C(=O)NCc1ccc(C(F)(F)F)c(F)c1)CCN(C(=O)C1(C)CC1)C2 [Compound 2082] | 0 to 25 | 0.667 |
| O=C(NCc1ccc(C(F)(F)F)c(F)c1)c1cccc2c(=O)n(C3CC3)ccc12 [Compound 2076] | > 76 | 0.119 |
| CC(C(N)=O)n1ccc2c(C(=O)NCC3CCCCC3)cccc2c1=O (stereo not drawn) [Compound 2049] | > 76 | 0.122 |
| COc1ccc(CN2CCc3c(ncnc3C(=O)NCC3CCCCC3)C2)cc1 [Compound 2012] | 0 to 25 |  |
| COCC(O)Cn1ccc2c(C(=O)NCC3CCCCCC3)cccc2c1=O (stereo not drawn) [Compound 2044] | 0 to 25 | > 1 |
| O=C(NCc1ccc(Cl)c(C(F)(F)F)c1)c1cccc2c(=O)n(C3CC3)ccc12 [Compound 2078] | > 76 | 0.0594 |
| Cc1ccc2c(c1C(=O)NCc1ccc(C(F)(F)F)c(F)c1)CCN(C(=O)C1CC1)C2 [Compound 2080] | 26 to 50 | 0.356 |
| C[C@H](C(N)=O)n1ccc2c(C(=O)NCC3(O)CCCCCC3)cccc2c1=O [Compound 2057] | > 76 | 0.0261 |
| CC1(C)CCCC(O)(CNC(=O)c2cccc3c(=O)n(CCO)ccc23)C1 (stereo not drawn) [Compound 2051] | 51 to 75 | 0.256 |
| CS(=O)(=O)c1ccc(CN2CCc3c(ncnc3C(=O)NCC3CCCCC3)C2)cc1 [Compound 2014] | 0 to 25 |  |
| O=C(NCc1ccc(Cl)c(F)c1)c1cccc2c(=O)n(C3CC3)ccc12 [Compound 2074] | > 76 | 0.107 |
| O=C(NCC1CCCCC1)c1ncnc2c1CCN(Cc1cccc(Cl)c1)C2 [Compound 2011] | 0 to 25 |  |
| O=C(NCc1ccc(C(F)(F)F)cc1)c1cccc2c(=O)n(C3CC3)ccc12 [Compound 2071] | 0 to 25 | 0.755 |
| C[C@@H](NC(=O)c1cccc2c(=O)n([C@@H](C)C(N)=O)ccc12)c1ccc(Cl)cc1 [Compound 2067] | 0 to 25 | > 1 |
